The first assay addresses T1, His-Tagged hOGA (human O-GlcNAcase) (Homo sapiens, UniProt O60502).
T1 sequence (O60502 1-916): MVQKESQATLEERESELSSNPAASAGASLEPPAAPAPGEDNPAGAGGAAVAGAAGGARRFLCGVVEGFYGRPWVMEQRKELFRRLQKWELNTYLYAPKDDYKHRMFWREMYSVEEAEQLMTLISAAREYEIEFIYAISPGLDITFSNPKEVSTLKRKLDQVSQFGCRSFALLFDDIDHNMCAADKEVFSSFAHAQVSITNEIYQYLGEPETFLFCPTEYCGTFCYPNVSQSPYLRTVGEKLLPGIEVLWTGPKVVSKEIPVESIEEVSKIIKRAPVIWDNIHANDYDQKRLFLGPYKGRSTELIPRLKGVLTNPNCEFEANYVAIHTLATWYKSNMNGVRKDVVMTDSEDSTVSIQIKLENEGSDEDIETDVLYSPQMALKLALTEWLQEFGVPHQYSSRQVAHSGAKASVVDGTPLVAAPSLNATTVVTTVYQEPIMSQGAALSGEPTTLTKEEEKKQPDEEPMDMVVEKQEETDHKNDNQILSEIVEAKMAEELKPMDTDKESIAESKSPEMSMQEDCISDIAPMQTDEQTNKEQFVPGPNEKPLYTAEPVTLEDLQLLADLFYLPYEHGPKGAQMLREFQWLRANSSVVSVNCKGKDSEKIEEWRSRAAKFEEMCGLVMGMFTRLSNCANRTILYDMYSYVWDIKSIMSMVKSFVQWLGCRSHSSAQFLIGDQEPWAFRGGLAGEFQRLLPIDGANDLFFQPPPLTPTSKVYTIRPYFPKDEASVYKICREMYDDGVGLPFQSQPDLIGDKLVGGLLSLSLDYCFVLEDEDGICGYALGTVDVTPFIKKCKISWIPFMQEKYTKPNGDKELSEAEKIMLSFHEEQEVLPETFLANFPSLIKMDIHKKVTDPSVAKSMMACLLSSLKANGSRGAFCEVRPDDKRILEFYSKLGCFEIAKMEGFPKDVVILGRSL
As to the kind of experiment: biochemical.
Settings: not given
The method, then:
Human O-GlcNAcase Enzyme Inhibition Assay
The following reaction components were added to a final volume of 10 μL in McIlvaine's Buffer (pH 6.5):
20 nM His-Tagged hOGA and 10 μM Fluoroscein mono-beta-D-(2-deoxy-2-N-acetyl) glucopyranoside (FL-GlcNAc; Marker Gene Technologies Inc, Part #M1485). […] The amount of fluorescence measured was plotted against the concentration of inhibitor to produce a sigmoidal dose response curve, from which an IC50 was calculated.
As for `CCNC1=N[C@@H]2[C@@H](O)[C@H](O)[C@@H](C(=O)CCCc3ccccc3)O[C@@H]2S1` [compound no. 60, 1-[(3aR,5S,6S,7R,7aR)-2-(ethylamino)-6,7-dihydroxy-5,6,7,7a-tetrahydro-3aH-pyrano[3,2-d][1,3]thiazol-5-yl]-4-phenylbutan-1-one], the IC50 (as a rule, the concentration that inhibits the measured activity by half) was more than 1000 nM.

Compound `CCNC1=N[C@@H]2[C@@H](O)[C@H](O)[C@@H](Cn3cc(-c4cn(S(=O)(=O)c5ccccc5)c5ccccc45)nn3)O[C@@H]2S1` [compound 98] came in with an IC50 of less than 100 nM.

`CCN(C(=O)OC(C)(C)C)C1=N[C@@H]2[C@@H](O)[C@H](O)[C@@H](COCc3ccccc3)O[C@@H]2S1` [compound no. 16, Tert-butyl {(3aR,5R,6S,7R,7aR)-5-[(benzyloxy)methyl]-6,7-dihydroxy-5,6,7,7a-tetrahydro-3aH-pyrano[3,2-d][1,3]thiazol-2-yl}ethylcarbamate] registered an IC50 of more than 1000 nM.

`CCNC1=N[C@@H]2[C@@H](O)[C@H](O)[C@@H]([C@H](O)CCCc3ccccc3)O[C@@H]2S1` [compound no. 55, (3aR,5R,6S,7R,7aR)-2-(ethylamino)-5-((R)1-hydroxy-4-phenylbutyl)-5,6,7,7a-tetrahydro-3aH-pyrano[3,2-d][1,3]thiazole-6,7-diol] had an IC50 of more than 1000 nM.

For `CCNC1=N[C@@H]2[C@@H](O)[C@H](O)[C@@H](Cn3cc(Cn4nc(C)nc4C)nn3)O[C@@H]2S1` [compound 96], the IC50 is less than 100 nM.

`CCNC1=N[C@@H]2[C@@H](OC)[C@H](O)[C@@H](CO)O[C@@H]2S1` [compound no. 15, (3aR,5R,6S,7R,7aR)-2-(ethylamino)-5-(hydroxymethyl)-7-methoxy-5,6,7,7a-tetrahydro-3aH-pyrano[3,2-d][1,3]thiazol-6-ol] registered an IC50 of more than 1000 nM.

The compound `CCNC1=N[C@@H]2[C@@H](O)[C@H](O)[C@@H](C(=O)NCCc3ccc(-c4ccccc4)cc3)O[C@@H]2S1` [compound no. 23, (3aR,5S,6S,7R,7aR)—N-(2-biphenyl-4-ylethyl)-2-(ethylamino)-6,7-dihydroxy-5,6,7,7a-tetrahydro-3aH-pyrano[3,2-d][1,3]thiazole-5-carboxamide] returned an IC50 of more than 1000 nM.

Take `CCNC1=N[C@@H]2[C@@H](O)[C@H](O)[C@@H](C(O)Cc3ccccc3)O[C@@H]2S1` (stereo partly shown) [compound 52]: the IC50 is 100 to 500 nM.

`CCNC1=N[C@@H]2[C@@H](O)[C@H](O)[C@@H](C(=O)NCCc3ccc(Oc4ccccc4)cc3)O[C@@H]2S1` [compound no. 33, (3aR,5S,6S,7R,7aR)-2-(ethylamino)-6,7-dihydroxy-N-[2-(4-phenoxyphenyl)ethyl]-5,6,7,7a-tetrahydro-3aH-pyrano[3,2-d][1,3]thiazole-5-carboxamide]: the half-inhibitory concentration (IC50) was more than 1000 nM.

Compound `CCNC1=N[C@@H]2[C@@H](O)[C@H](O)[C@@H](Cn3cc(C4(c5ccccc5)CCCC4)nn3)O[C@@H]2S1` [compound 100] gave an IC50 of 100 to 500 nM.

For `CCN(C(=O)Oc1ccccc1)C1=N[C@@H]2[C@@H](O)[C@H](O)[C@@H](CO)O[C@@H]2S1` [compound no. 63, Phenyl-[(3aR,5R,6S,7R,7aR)-6,7-dihydroxy-5-(hydroxymethyl)-5,6,7,7a-tetrahydro-3aH-pyrano[3,2-d][1,3]thiazol-2-yl]ethylcarbamate], the IC50 lay within 100 to 500 nM.

Take `CCNC1=N[C@@H]2[C@@H](O)[C@H](O)[C@@H](Cn3cc(Cn4c(C(F)(F)F)nc5ccccc54)nn3)O[C@@H]2S1` [compound 95]: the 50% inhibitory concentration (IC50) was less than 100 nM.

Regarding `CCNC1=N[C@@H]2[C@@H](O)[C@H](O)[C@@H](Cn3cc(COc4ccccc4C(C)O)nn3)O[C@@H]2S1` (stereo partly shown) [compound 85], the IC50 lay in the range of 100 to 500 nM.

With `CCNC1=N[C@@H]2[C@@H](O)[C@H](O)[C@@H](C(=O)Nc3ccccc3)O[C@@H]2S1` [compound no. 31, (3aR,5S,6S,7R,7aR)-2-(ethylamino)-6,7-dihydroxy-N-phenyl-5,6,7,7a-tetrahydro-3aH-pyrano[3,2-d][1,3]thiazole-5-carboxamide], the IC50 was more than 1000 nM.

`CCNC1=N[C@@H]2[C@@H](O)[C@H](O)[C@@H](Cn3nnnc3C(=O)c3ccccc3)O[C@@H]2S1` [compound 105] had an IC50 of more than 1000 nM.

For `CCNC1=N[C@@H]2[C@@H](O)[C@H](O)[C@@H]([C@@H](O)CCCc3ccccc3)O[C@@H]2S1` [compound no. 56, (3aR,5R,6S,7R,7aR)-2-(ethylamino)-5-((S)1-hydroxy-4-phenylbutyl)-5,6,7,7a-tetrahydro-3aH-pyrano[3,2-d][1,3]thiazole-6,7-diol], the IC50 was 100 to 500 nM.

Still in this assay, the particulars now being: 20 nM His-Tagged hOGA, 10 μM FL-GlcNAc, pH 6.5, 60 min room temperature; read-out: OGA enzyme inhibition (IC50).
Consider `CCN(C(=O)OCc1ccccc1)C1=N[C@@H]2[C@@H](O)[C@H](O)[C@@H](CO)O[C@@H]2S1` [compound no. 62, benzyl [(3aR,5R,6S,7R,7aR)-6,7-dihydroxy-5-(hydroxymethyl)-5,6,7,7a-tetrahydro-3aH-pyrano[3,2-d][1,3]thiazol-2-yl]ethylcarbamate], for which the IC50 lay within 100 to 500 nM.

Still in this assay, the particulars now being: read-out: OGA enzyme inhibition (IC50).
As to `CCNC1=N[C@@H]2[C@@H](O)[C@H](O)[C@@H](CNCc3ccccc3)O[C@@H]2S1` [compound no. 48, (3aR,5R,6S,7R,7aR)-5-[(benzylamino)methyl]-2-(ethylamino)-5,6,7,7a-tetrahydro-3aH-pyrano[3,2-d][1,3]thiazole-6,7-diol], the IC50 lay within 500 to 1000 nM.

Take `CCN(C)C1=N[C@@H]2[C@@H](O)[C@H](O)[C@@H](C(=O)O)O[C@@H]2S1` [compound no. 36, (3aR,5S,6S,7R,7aR)-2-[ethyl(methyl)amino]-6,7-dihydroxy-5,6,7,7a-tetrahydro-3aH-pyrano[3,2-d][1,3]thiazole-5-carboxylic acid]: the IC50 was more than 1000 nM.

In the case of `CCNC1=N[C@@H]2[C@@H](O)[C@H](O)[C@@H](C(=O)O)O[C@@H]2S1` [compound no. 9, (3aR,5S,6S,7R,7aR)-2-(ethylamino)-6,7-dihydroxy-5,6,7,7a-tetrahydro-3aH-pyrano[3,2-d]thiazole-5-carboxylic acid], the IC50 was more than 1000 nM.

As to `CCNC1=N[C@@H]2[C@@H](O)[C@H](O)[C@@H](Cn3cc(C4(c5ccccc5)CC4)nn3)O[C@@H]2S1` [compound 99], the IC50 was less than 100 nM.

In the case of `CCNC1=N[C@@H]2[C@@H](O)[C@H](O)[C@@H](COCc3ccccc3)O[C@@H]2S1` [compound no. 8, (3aR,5R,6S,7R,7aR)-5-[(benzyloxy)methyl]-2-(ethylamino)-5,6,7,7a-tetrahydro-3aH-pyrano[3,2-d][1,3]thiazole-6,7-diol], the IC50 was more than 1000 nM.

Regarding `CCNC1=N[C@@H]2[C@@H](O)[C@H](O)[C@@H](Cn3cc(COC)nn3)O[C@@H]2S1` [compound 11, (3aR,5R,6S,7R,7aR)-2-(ethylamino)-5-{[4-(methoxymethyl)-1H-1,2,3-triazol-1-yl]methyl}-5,6,7,7a-tetrahydro-3aH-pyrano[3,2-d][1,3]thiazole-6,7-diol], the IC50 lay within 100 to 500 nM.

Regarding `CCNC1=N[C@@H]2[C@@H](O)[C@H](O)[C@@H](C(=O)N(C)OC)O[C@@H]2S1` [compound no. 45, (3aR,5S,6S,7R,7aR)-2-(ethylamino)-6,7-dihydroxy-N-methoxy-N-methyl-5,6,7,7a-tetrahydro-3aH-pyrano[3,2-d][1,3]thiazole-5-carboxamide], the IC50 was more than 1000 nM.

Regarding `CCNC1=N[C@@H]2[C@@H](O)[C@H](O)[C@@H](Cn3cc(COc4ccccc4CN)nn3)O[C@@H]2S1` [compound 102], the IC50 lay within 100 to 500 nM.

Values taken from US8884023B2, “Pyrano [3,2-D][1,3]thiazole as glycosidase inhibitors” (priority 2011, dated 2014).
